Results as given in patent publication US9622970B2, “Pharmaceutical composition containing lutein and antioxidant for treating and preventing human disease” (priority 2014, dated 2017).

Assay: Plasma lutein concentration in chickens fed lutein or preparation of lutein (HPLC)
Format: in vivo, chicken
Conditions: diet with 15 mg lutein/kg for 15 days
Procedure: Chickens (50), weighing 1.0±0.2 kg, were randomly divided into two treatments, with 25 chickens each. Chickens were individually housed in cages measuring 0.2×0.2 m, and were submitted to a lighting program of 16 h light/day. Chickens were kept under a temperature of 20±5° C. Feed and water were supplied ad libitum.
After two weeks of washout period, when the chickens were fed lutein or preparation of lutein with basal diet, two groups were fed the basal diets lutein or preparation of lutein for a period of 15 days. Lutein contents were determined using a HPLC method. The basal diet contained 0.5 mg lutein/kg. The two diets were formulated to contain the same level of 15 mg lutein/kg. All feeds were prepared every day.
Morning blood samples were taken on day 0, and days 3, 6, 12 for lutein analysis. The number of eggs laid by each chicken was counted during the experiment. Blood samples were obtained by puncture of the vena ulnaris. One milliliter of blood was sampled from each chicken. The plasma was separated by centrifugation. Plasma lutein concentrations have been detected. […]
A single gradient-type HPLC system was used for the parallel analysis of plasma concentration of lutein. The HPLC systems consisted of two solvent-delivery systems detected with a 436-nm and a 280-nm filter. The samples were analyzed by HPLC method. Lutein was quantified by determining the peak area at 445 nm. […]

Plasma lutein concentration: 1.20 ± 0.10 μg lutein/ml
Compound: CC1=C[C@H](O)CC(C)(C)[C@H]1/C=C/C(C)=C/C=C/C(C)=C/C=C/C=C(C)/C=C/C=C(C)/C=C/C1=C(C)C[C@@H](O)CC1(C)C [Lutein, lutein]
